In patent publication US5550131A, “2-piperazinone compounds and their use” (Takeda Chemical Industries, Ltd., priority 1993, dated 1996):

Key:
[1] = test system: guinea pig platelet aggregation by ADP; assay: Determination of platelet aggregation in vitro (by ADP), guinea pig platelet rich plasma; type: cell-based; details: Cavia porcellus, guinea pig PRP, n = 3, ADP 0.6-1 μM, 37° C., read-out: Inhibition of platelet aggregation by ADP, IC50, guinea pigs
Experimental: (§1) Method […] The sodium citrate--supplemented blood was centrifuged at 950 rpm for 10 minutes and 2,000 rpm for 10 minutes respectively at room temperature to obtain platelet rich plasma (PRP) and platelet poor plasma (PPP). PRP was diluted with PPP to adjust the number of platelets to be 500,000/μl. Platelet aggregation measured spectroscopically in accordance with Born's method (Nature 194: 927, 1962) using an aggregometer (HEMA TRACER VI Toa Iyo Denshi). The PRP (250 μl) was incubated at 37° C. for 2 minutes, to which was then added 25 μl of a test drug solution. Two minutes later, 25 μl of an agent for causing agglutination. The effect of the test drug was shown by the inhibition rate of the maximum aggregation rate of the test group against that of the control group. ADP was used in the minimum concentration (0.6-1 μM) capable of obtaining maximum aggregation. Inhibitory effect on platelet aggregation by ADP of the compounds of Working Examples

[2] = test system: human platelet aggregation by ADP; assay: Determination of platelet aggregation in vitro (by ADP), human platelet rich plasma; type: cell-based; details: human PRP, n = 3, ADP 0.6-1 μM, 37° C., read-out: Inhibition of platelet aggregation by ADP, IC50, human
Experimental: as §1

[3] = test system: platelet aggregation caused by ADP; assay: Ex vivo platelet aggregation experiment (ADP) after oral administration to guinea pigs; type: in vivo, guinea pig
Experimental: Method After fasting overnight, guinea pigs were orally administered with a test drug solution (2 ml/kg). Blood was collected from the animals, under anesthesia with pentobarbital, after 1, 4 and 24 hours respectively. By the method described above, PRP was prepared and the platelet aggregation caused by ADP was measured. The rate of inhibition of aggregation was determined by the aggregation rate obtained in the test groups against that obtained in the control. The test drug was administered orally as a solution in distilled water. ADP aggregation inhibiting action by the compound of working Example 1 in guinea pigs

[4] = test system: activated platelets of guinea pigs; assay: Binding experiment in vitro: specific binding of 125I-fibrinogen to activated platelets of guinea pigs; design: species or system guinea pig; details: n=3; 125I-fibrinogen 0.1 μM; ADP 5×10^-5 M; 2 hours at room temperature; read-out: IC50 value against the specific binding of 125I-fibrinogen to activated platelets of guinea pigs
Experimental: Method Washed platelets were prepared from sodium citrate--supplemented blood of guinea pig, which were suspended in a Hepes Tyrode solution (pH 7.5) to adjust the number of platelets to be 500,000/μl. To 70 μl of this suspension was added 10 μl of an ADP solution (final concentration: 5×10^-5 M), and the mixture was left standing for 15 minutes at room temperature. To the mixture were added a solution of the test drug and 80 μl of a ^125 I-fibrinogen solution (final concentration: 0.1 μM), which was left standing for 2 hours at room temperature. Onto a 20% sucrose buffer solution was overlaid 100 μl of the reaction mixture, which was subjected to centrifuge at 3,000 rpm to separate platelet-adhesive ^125 I-fibrinogen from non-adhesive one. The radioactivity of the platelet-adhesive ^125 I-fibrinogen was determined. From the value obtained from the test groups against specific binding of the control group (processed with the buffer solution), the adhesion inhibiting ratio was determined. Action of the compound of Working Example 1 against the specific binding of ^125 I-fibrinogen to activated platelets of guinea pigs.

Compound | IC50 [1] | IC50 [2] | other results
COC(=O)C[C@H]1C(=O)N(CC(=O)O)CCN1C(=O)C(Cc1ccc(O)c(O)c1)NC(=O)c1ccc(C(=N)N)cc1 (mixture of isomers) [Working Example 24] | 46 nM | 24 nM | 
COC(=O)C[C@H]1C(=O)N(CC(=O)O)CCN1C(=O)[C@H](Cc1ccc(O)c(F)c1)NC(=O)c1ccc(C(=N)N)cc1 [Working Example 22] | 47 nM | 18 nM | 
CCOc1ccc(C[C@H](NC(=O)c2ccc(C(=N)N)cc2)C(=O)N2CCN(CC(=O)O)C(=O)[C@@H]2CC(=O)OC)cc1 [Working Example 4, (S)-4-(4-amidinobenzoyl-O-ethyl-L-tyrosyl)-3-methoxycarbonylmethyl-2-oxopiperazine-1-acetic acid] | 120 nM |  | 
COC(=O)C[C@H]1C(=O)N(CC(=O)O)CCN1C(=O)[C@H](Cc1ccc(O)cc1F)NC(=O)c1ccc(C(=N)N)cc1 [Working Example 23] | 38 nM | 17 nM | 

Further lines, with some results ahead:

IC50 [1] | IC50 [2] | Compound | other results
26 nM | 20 nM | C=CCOc1ccc(C[C@H](NC(=O)c2ccc(C(=N)N)cc2)C(=O)N2CCN(CC(=O)O)C(=O)[C@@H]2CC(=O)OC)cc1 [Working Example 18] | 
34 nM | 40 nM | CCCOc1ccc(C[C@H](NC(=O)c2ccc(C(=N)N)cc2)C(=O)N2CCN(CC(=O)O)C(=O)[C@@H]2CC(=O)OC)cc1 [Working Example 5] | 
15 nM | 10 nM | COC(=O)C[C@H]1C(=O)N(CC(=O)O)CCN1C(=O)[C@H](Cc1ccc(OC)cc1)NC(=O)c1ccc(C(=N)N)cc1 [Working Example 3, (S)-4-(4-Amidinobenzoyl-O-Methyl-L-Tyrosyl)-3-Methoxycarbonylmethyl-2-Oxopiperazine-1 -Acetic Acid] | ADP aggregation inhibition rate ([3]; 1 mg/kg p.o., after 1 hour, n=6): 95%; ADP aggregation inhibition rate ([3]; 1 mg/kg p.o., after 4 hour, n=6): 100%
38 nM | 26 nM | COC(=O)C[C@H]1C(=O)N(CC(=O)O)CCN1C(=O)[C@H](Cc1ccc(F)cc1)NC(=O)c1ccc(C(=N)N)cc1 [Working Example 21] | 
18 nM | 12 nM | COC(=O)C[C@H]1C(=O)N(CC(=O)O)CCN1C(=O)[C@H](Cc1ccc(OC)cc1)NC(=O)c1ccc(CCN)cc1 [Working Example 31] | 
37 nM | 20 nM | COC(=O)C[C@H]1C(=O)N(CC(=O)O)CCN1C(=O)[C@H](Cc1ccc(O)cc1)NC(=O)c1ccc(C(=N)N)cc1.Cl [Working Example 1, (S)-4-(4-Amidinobenzoyl-L-Tyrosyl)-3-Methoxycarbonylmethyl-2-Oxopiperazine-1-Acetic Acid Hydrochloride] | IC50 [4]: 2.7 nM; ADP aggregation inhibition rate ([3]; 3 mg/kg p.o., after 1 hour, n=4): 100%; ADP aggregation inhibition rate ([3]; 3 mg/kg p.o., after 4 hour, n=4): 100%; ADP aggregation inhibition rate ([3]; 3 mg/kg p.o., after 24 hour, n=3): 100%
